Measured values as given in patent US4402942A, “Oxytocin derivatives” (Ferring AB, priority 1980, dated 1983).

Key:
[1] = tested on: uterine contractions caused by infusion of oxytocin; assay: Rat in vivo uterine contractions under oxytocin infusion; details: for complete block of the uterine contraction pattern (oxytocin initiated and spontaneous): dose of 2 μg; for inhibition of the increase of strength of uterine contractions caused by oxytocin infusion: oxytocin 0.05 μg/min/100 g body weight
Protocol: Sprague Dawley rats (250 g) in natural estrous were anaesthetized with Inactin (0.5 mg/100 g body weight i.p.). Myometrial activity was recorded by means of a catheter fixed in the uterine cavity and filled with modified Locke's solution. The catheter was connected to a Statham P23d transducer and contractions were recorded on a Grass polygraph (model 7D). Oxytocin was infused intravenously (0.05 μg/min/100 g body weight). When a regular contraction pattern had been obtained the antagonist (0.8-8.0 μg/100 g body weight) was administered intravenously in a volume of 0.2 ml. The recorded curve was integrated over 10 minute intervals immediately before and after injection of the antagonist.

[2] = tested on: rat uterus preparations stimulated with oxytocin; assay: Antagonistic activity (pA2) on rat uterus preparations in vitro stimulated with oxytocin; format: cell-based; details: oxytocin as agonist
Protocol: Sprague Dawley rats (body weight approximately 250 g) in natural estrous were selected by vaginal smears. An approximately 20 mm long segment was cut from the middle of a uterine horn and mounted in an organ bath containing 10 ml of a modified Locke's solution of the following composition (mM:NaCl 153, KCl 5.63, CaCl2 0.541, NaHCO3 5.95 and glucose 2.78). The solution was gassed with 5% CO2 in oxygen at 30° C. The uterine contractions were allowed to stabilize for 30 minutes. Contractions were recorded isometrically at a resting tension of 1.5 g using Grass force transducers (Ft. 03). Antagonistic potency of the analogues was calculated as pA2 values (Rudinger, J. & Krejci, I. Experientia 18, (1962), 585-588). pA2 is a measure of the inhibitory property of the peptide and was defined by Schild (Schild, H. O., British Journal of Pharmacology, 2, (1947), 189-206) as the negative logarithm of the molar concentration of an antagonist which reduces the effect of a dose of agonist to that of half the dose.

[3] = tested on: isolated rat uterus; assay: Uterotonic potency on isolated rat uterus with oxytocin as standard; format: cell-based; details: rat in vitro
Protocol: The known compounds 2-O-methyltyrosine-oxytocin and 2-O-ethyltyrosine-oxytocin and a representative compound according to the invention, viz. 1-deamino-(2-O-ethyltyrosine)-oxytocin, was examined with regard to uterotonic potency on isolated rat uterus with use of oxytocin as standard. The antagonistic properties of the compounds were also evaluated with the aid of said preparation, but also in vivo with use of oxytocin as agonist. Moreover, the inhibition of oxytocin effect on isolated human myometrium was examined.
Sprague Dawley rats (body weight approximately 250 g) in natural estrous were selected by vaginal smears. […] Contractions were recorded isometrically at a resting tension of 1.5 g using Grass force transducers (Ft. 03). Antagonistic potency of the analogues was calculated as pA2 values (Rudinger, J. & Krejci, I. Experientia 18, (1962), 585-588). pA2 is a measure of the inhibitory property of the peptide and was defined by Schild (Schild, H. O., British Journal of Pharmacology, 2, (1947), 189-206) as the negative logarithm of the molar concentration of an antagonist which reduces the effect of a dose of agonist to that of half the dose.

[4] = tested on: oxytocin induced uterine contractions; details: literature, studies on rats; cited from earlier work
[5] = tested on: isolated human myometrium (pregnant), oxytocin induced contractions; assay: Inhibition of oxytocin induced contractions of isolated uterine tissue from pregnant women; format: cell-based; details: in vitro
Protocol: From 17 patients undergoing caesarean section (week 37-40) a transverse segment of uterine tissue was excised from the isthmic part of the uterus. Tissue pieces were also excised from the ventral side of the uterus of 21 non-pregnant women in fertile age undergoing hysterectomy. The tissue pieces were immediately placed in Krebs-Ringer solution (mM: NaCl 118, KCl 4.6, CaCl2 2.5, MgSO4 1.15, NaHCO3 24.9, KH2 PO4 1.15 and glucose 5.5) at 0° C. and used within two hours after the operation. Segments pieces 25×3×3 mm large were mounted in an organ bath containing 10 ml Krebs-Ringer solution at 37° C. and gassed with 5% CO2 in oxygen. After an adaptation period of 30 minutes contractions were isometrically recorded at a resting tension of 1.25 g. In experiments involving pregnant women use was made of oxytocin (0.013-1.3 μg/ml) as an agonist. Lysinevasopressin (0.07-1.3 μg/ml) was used as an agonist where non-pregnant tissue was tested. A suitable dose of agonist was selected, which gave an effect corresponding to approximately 40% of the maximum effect. The antagonist was used in a concentration of 0.33-1.32 μg/ml. […] The inhibitory effect of the antagonist was measured by planimetry, for 15 minutes after the addition of the peptide, of the total surface of the curve recorded. Inhibition was expressed as a percentage of the effect obtained with the agonist alone.

[6] = tested on: spontaneous uterine function; details: Swedish patent 7713/70; cited from earlier work
[7] = Blood pressure after intravenous dose; format: in vivo; details: 30 μg intravenously

Compound | complete block of the uterine contraction pattern (oxytocin initiated and spontaneous) [1] | inhibition of the increase of strength of uterine contractions caused by oxytocin infusion [1] | pA2 (average ± average error) [2] | uterotonic potency [3] | effect on oxytocin induced uterine contractions [4] | inhibition of oxytocin induced contractions [5] | effect on the spontaneous uterine function [6] | effect on the blood pressure [7]
2-O-methyltyrosine-oxytocin | lack this ability | dose dependent reversible inhibition | 6.68 ± 0.12 | 1-2 IU/mg | antagonistic effect | – | – | –
[1-deaminopenicillamine,2-O-methyltyrosine]oxytocin | – | – | – | – | antagonistic effect | – | – | –
2-O-ethyltyrosine-oxytocin | lack this ability | dose dependent reversible inhibition | 7.13 ± 0.09 | 1-2 IU/mg | antagonistic effect | a significant inhibition was obtained, which was however considerably lower than with use of the compound according to the invention | – | –
N^α -acetyl-2-O-methyltyrosine-oxytocin | – | – | – | – | antagonistic effect | – | no effect on the spontaneous uterine function | –
CCOc1ccc(C[C@@H]2NC(=O)CCSSC[C@@H](C(=O)N3CCC[C@H]3C(=O)N[C@@H](CC(C)C)C(=O)NCC(N)=O)NC(=O)[C@H](CC(N)=O)NC(=O)[C@H](CCC(N)=O)NC(=O)[C@H]([C@@H](C)CC)NC2=O)cc1 [1-deamino-2-O-ethyltyrosine-oxytocin] | – | – | 7.19 ± 0.10 | – | – | – | – | no effect at all on the blood pressure
